Source: article PMC10480161, “Identification of potent and selective N-myristoyltransferase inhibitors of Plasmodium vivax liver stage hypnozoites and schizonts” (Nature Communications, 2023)
Several values for one entry are separate records, joined by “and”; a condition that tells them apart may be missing. Equal entries are not always repeated. Where two headings read alike, the source gives them in different places.

Tests used:
PvNMT = PvNMT (Plasmodium vivax, UniProt A5K1A2); test: NMT activity assay (CPM detection of free CoA), PvNMT; details: for SI: enzyme selectivity, HsNMT IC50/PvNMT IC50
PvNMT, sequence (A5K1A2 entry or part of it): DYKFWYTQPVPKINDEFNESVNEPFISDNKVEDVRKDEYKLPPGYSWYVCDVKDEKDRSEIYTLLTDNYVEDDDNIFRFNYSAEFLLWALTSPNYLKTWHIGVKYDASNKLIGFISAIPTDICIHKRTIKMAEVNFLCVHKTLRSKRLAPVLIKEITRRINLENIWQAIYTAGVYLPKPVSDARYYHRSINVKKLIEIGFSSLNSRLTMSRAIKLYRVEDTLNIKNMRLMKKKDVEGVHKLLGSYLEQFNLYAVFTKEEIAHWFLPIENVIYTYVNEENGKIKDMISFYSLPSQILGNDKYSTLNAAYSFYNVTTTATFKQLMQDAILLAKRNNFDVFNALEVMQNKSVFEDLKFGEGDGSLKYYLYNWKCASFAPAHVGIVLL

P. vivax schizonts = test: P. vivax liver stage assay, schizonts; assay type: cell-based, Plasmodium vivax; details: for Number of liverstage Schizonts per well: 20 µM, 8 dpi; for IC50: primary human hepatocytes, treatment day 5 to 8 post-infection, isolates 2 and 3
In short: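 Compound exposure ran days 5–8 post-infection with daily refeeding, dose-response up to 20 µM, MMV390048 at 20 µM as positive control. Host cells were single-lot primary human hepatocytes infected with freshly dissected P. vivax sporozoites; fixed cultures stained with anti-PvUIS4 and DAPI, schizonts quantified by confocal microscopy.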

[1] = system: primary human hepatocytes; test: Nuclear counts (DAPI) in P. vivax-infected primary hepatocytes as measure of toxicity; assay type: cell-based; details: two technical replicates
In short: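 Toxicity readout: DAPI nuclear counts normalized to DMSO wells, from confocal images of fixed P. vivax-infected single-donor primary human hepatocytes. Compounds, up to 20 µM, were applied daily from day 5 until day 8 post-infection; two technical replicates.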

HsNMT1 = target: T1, HsNMT1 (Homo sapiens, UniProt P30419); test: NMT activity assay (CPM detection of free CoA), HsNMT
T1 sequence (P30419 1-496): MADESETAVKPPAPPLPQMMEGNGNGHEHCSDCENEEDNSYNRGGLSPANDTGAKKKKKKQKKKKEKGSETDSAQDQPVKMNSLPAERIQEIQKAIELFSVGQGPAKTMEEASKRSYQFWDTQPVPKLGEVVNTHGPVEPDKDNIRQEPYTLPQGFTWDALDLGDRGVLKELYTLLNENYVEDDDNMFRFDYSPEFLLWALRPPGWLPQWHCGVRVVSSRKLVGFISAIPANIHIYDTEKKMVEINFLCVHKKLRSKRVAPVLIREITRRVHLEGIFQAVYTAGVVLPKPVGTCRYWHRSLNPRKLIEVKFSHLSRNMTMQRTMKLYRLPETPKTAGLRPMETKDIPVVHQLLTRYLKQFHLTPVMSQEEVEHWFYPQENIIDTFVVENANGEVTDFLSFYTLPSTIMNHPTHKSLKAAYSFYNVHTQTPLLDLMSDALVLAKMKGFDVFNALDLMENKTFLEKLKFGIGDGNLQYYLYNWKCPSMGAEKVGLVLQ

P. vivax hypnozoites = test: P. vivax liver stage assay, hypnozoites; assay type: cell-based, Plasmodium vivax; details: for Hypnozoites per well: Isolate 2, replicate wells (Figure 6d); for Number of liverstage hypnozoites per well: 20 µM, 8 dpi; for IC50: primary human hepatocytes, treatment day 5 to 8 post-infection, isolate 2
In short: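 Hypnozoite read-out by confocal imaging of PvUIS4/DAPI-stained cultures at day 8 post-infection. Compound was replaced daily starting day 5 in P. vivax-infected single-donor primary human hepatocytes. Positive control: Pi4K inhibitor MMV390048, 20 µM.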

[2] = isolate 1, technical replicates (Fig. 5b)
[3] = isolate 2, technical replicates (Fig. 5b)
[4] = isolate 3, technical replicates (Fig. 5b)
[5] = Plasmodium vivax, Hepatocyte, 120 h
[6] = isolate 1, technical replicates (Fig. 6C)
[7] = isolate 2, technical replicates (Fig. 6C)
[8] = isolate 3, technical replicates (Fig. 6C)

Compound	SI (PvNMT)	Number of liverstage Schizonts per well (P. vivax schizonts; [2])	Number of liverstage Schizonts per well (P. vivax schizonts; [3])	Number of liverstage Schizonts per well (P. vivax schizonts; [4])	Schizonts per well (P. vivax schizonts; Isolate 2, 1.25 uM)	Schizonts per well (P. vivax schizonts; Isolate 2, 2.5 uM)	Schizonts per well (P. vivax schizonts; Isolate 2, 5 uM)	Schizonts per well (P. vivax schizonts; Isolate 3, 1.25 uM)	Schizonts per well (P. vivax schizonts; Isolate 3, 2.5 uM)	Schizonts per well (P. vivax schizonts; Isolate 3, 5 uM)	schizonts (fold change to DMSO) mean diff (P. vivax schizonts; isolate 1, 20 µM)	schizonts (fold change to DMSO) mean diff (P. vivax schizonts; isolate 2, 20 µM)	schizonts (fold change to DMSO) mean diff (P. vivax schizonts; isolate 3, 20 µM)	Nucleus counts per well ([1]; 1 uM)	Nucleus counts per well ([1]; 2.5uM)	Nucleus counts per well ([1]; 5 uM)	Nucleus counts per well ([1]; 10uM)	Nucleus counts per well ([1]; 20uM, P. vivax-infected wells)	Hypnozoites per well (P. vivax hypnozoites; 1.25 uM)	Hypnozoites per well (P. vivax hypnozoites; 2.5 uM)	other results
Cc1n[nH]c(C)c1CCOc1cc(F)ccc1-c1cccc(OCCN(C)C)c1 [Compound 26i]	57	2 per well (2×) and 0 per well	2 per well (2×) and 4 per well	3 per well and 2 per well	14 per well and 13 per well	14 per well and 11 per well and 12 per well	10 per well and 9 per well and 7 per well	12 per well and 13 per well	10 per well and 9 per well	8 per well and 9 per well	0.933	0.8491	0.8295	15030 per well and 14960 per well	13600 per well and 14280 per well	12980 per well and 13510 per well	14570 per well and 13510 per well	12860 per well and 13500 per well	10 and 7 and 12	7 and 9 and 14	IC50 (PvNMT; PvNMT IC50, mean of two or more determinations): 0.242 µM; Schizonts per well (P. vivax schizonts; Isolate 2, 20 uM (Fig. 5c-d)): 2 per well and 4 per well; Schizonts per well (P. vivax schizonts; Isolate 3, 20 uM (Fig. 5c-d)): 3 per well and 2 per well; IC50 (P. vivax schizonts; [5]): 3.3 to 5.2 µM; IC50 (HsNMT1): 13.9 µM; Hypnozoites per well (P. vivax hypnozoites; 5 uM): 10 and 7 and 12; Hypnozoites per well (P. vivax hypnozoites; 10 uM): 8 and 12 and 14; Number of liverstage hypnozoites per well (P. vivax hypnozoites; [6]): 8 per well and 6 per well (2×); Number of liverstage hypnozoites per well (P. vivax hypnozoites; [7]): 8 per well and 6 per well (2×); Number of liverstage hypnozoites per well (P. vivax hypnozoites; [8]): 0 per well; Hypnozoites per well (P. vivax hypnozoites; 20 uM): 8 and 6 (2×); IC50 (P. vivax hypnozoites; [5]): 11 µM; hypnozoites (fold change to DMSO) mean diff (P. vivax hypnozoites; isolate 1, 20 µM): 1.000; hypnozoites (fold change to DMSO) mean diff (P. vivax hypnozoites; isolate 2, 20 µM): 0.310
Cc1nn(C)c(C)c1CCOc1ccc2ccccc2c1-c1ccnc(N2CCNCC2)c1 [Compound 30a]	269.8	0 per well	2 per well (2×) and 0 per well	4 per well and 0 per well	10 per well and 11 per well and 19 per well	11 per well and 12 per well and 16 per well	6 per well and 8 per well and 11 per well	13 per well and 11 per well	7 per well and 6 per well	8 per well and 4 per well	1.000	0.9245	0.8636	15050 per well and 16480 per well	16520 per well and 15260 per well	14210 per well and 14260 per well	14230 per well and 14010 per well	13060 per well and 13510 per well	6 and 9 and 13	5 and 0 and 3	IC50 (PvNMT; read-out: PvNMT IC50, mean of two or more determinations): 0.089 µM; Schizonts per well (P. vivax schizonts; Isolate 2, 10 uM): 4 per well and 7 per well and 8 per well; Schizonts per well (P. vivax schizonts; Isolate 3, 10 uM): 5 per well and 7 per well; IC50 (P. vivax schizonts): 2.9 to 4.3 µM; IC50 (HsNMT1; read-out: HsNMT IC50, mean of two or more determinations): 24 µM; Hypnozoites per well (P. vivax hypnozoites; 5 uM): 2 (2×) and 0; Hypnozoites per well (P. vivax hypnozoites; 10 uM): 1 and 0 and 2; Number of liverstage hypnozoites per well (P. vivax hypnozoites; [6]): 0 per well; Number of liverstage hypnozoites per well (P. vivax hypnozoites; [7]): 0 per well; Number of liverstage hypnozoites per well (P. vivax hypnozoites; [8]): 0 per well; Hypnozoites per well (P. vivax hypnozoites; 20 uM): 0; hypnozoites (fold change to DMSO) mean diff (P. vivax hypnozoites; isolate 1, 20 µM): 0.954; hypnozoites (fold change to DMSO) mean diff (P. vivax hypnozoites; isolate 2, 20 µM): 1.000; IC50 (P. vivax hypnozoites): 2.1 µM
